Tests used:
[1] = test system: Human NCI-H716 cells; assay: Secretion of GLP-1 in Human NCI-H716 cells (FIG. 1); assay type: cell-based
Excerpt: FIG. 1 is a graph illustrating the effects of compositions in Human NCI-H716 cells according to an implementation.

[2] = test system: preclinical diabetes model; assay: Plasma GLP-1 levels in preclinical diabetes model (FIG. 2); assay type: in vivo

Row | SMILES | secretion of GLP-1 [1] | plasma GLP-1 levels [2]
1 | COc1ccc2cc3[n+](cc2c1OC)CCc1cc2c(cc1-3)OCO2 [Berberine] | modulate the secretion of GLP-1 to various degrees | modulate plasmas GLP-1 levels
2 | O=C(O[C@@H]1Cc2c(O)cc(O)cc2O[C@@H]1c1cc(O)c(O)c(O)c1)c1cc(O)c(O)c(O)c1 [epigallocatechin gallate] | modulate the secretion of GLP-1 to various degrees | –
3 | CC/C=C\C/C=C\C/C=C\CCCCCCCC(=O)O [α-linolenic acid] | modulate the secretion of GLP-1 to various degrees | modulate plasmas GLP-1 levels

Source: patent publication US20250205300A1, “PLANT-BASED COMPOSITIONS AND METHODS FOR HORMONE SIGNALING, BLOOD GLUCOSE CONTROL, APPETITE CONTROL, AND WEIGHT MANAGEMENT” (Alpine Biotech, LLC, priority 2023, published 2025)
